The text below walks through data of patent publication US20050250853A1, “Beta-tubulin inhibitors” (priority 1999, published 2005).

A short description of series [1]: Kinetics of alkylation of 4-(4-nitrobenzyl)pyridine (colorimetric assay). The class given is physicochemical. To be noted: 80° C., pH 4.3, absorbance at 570 nm, linear regression, mean ± SD. Here is the method: The rate constant of alkylation (K′) of CEU derivatives and chlorambucil was evaluated by a […] assay as described by Bardos et al (13). Briefly, 1 ml of a 10% (v/v) solution of 4-(4-nitrobenzyl)pyridine in ethanol and 1 ml of 50 mM sodium acetate (pH 4.3) were added to an ethanol solution (95%) containing 400 nmol per ml of either chlorambucil or CEU and heated to 80° C. in a shaking water bath for 60, 90, 120 or 150 min. The reaction was stopped by cooling the mixtures on ice for 5 min. Then, 1.5 ml of 0.1 M KOH: ethanol (1:2, v/v) were added to the reaction mixture. Samples were vortexed for 12 sec and set aside for 2.5 min prior to reading the absorbance at 570 nm. The values were compared with those obtained using a blank sample containing all reagents except the alkylating agent.

In series [2] the test system is MDA-MB-231 cells. Put plainly: cells. It counts as cell-based, human. Here is the method: (§1) Human breast carcinoma cell line, MDA-MB-231, was obtained from the American Type Culture Collection (ATCC HTB-26; Bethesda, Md.). MDA-MB-231 cells were grown in RPMI 1640 medium supplemented with 10% bovine calf serum (Hyclone, Road Logan, Utah). Wild-type Chinese Hamster Ovary cells (CHO-10001) (7), colchicine- and vinblastine-resistant (CHO-VV 3-2) (8) and taxol-resistant (CHO-TAX 5-6) cells (9) were generously provided by Dr. Fernando Cabral (University of Texas Medical School, Houston, Tex.). These cells were cultured in RPMI 1640 containing 10% fetal bovine serum. SK—N—SH human neuroblastoma cells, (ATCC HTB-11; Bethesda, Md.) were cultured in MEM medium supplemented with 2 mM L-glutamine, 1.5 g/liter sodium bicarbonate, 0.1 mM non-essential amino acids, 1 mM sodium pyruvate and 10% fetal bovine serum. Cells were cultured in a humidified atmosphere at 37° C. in 5% CO2.
(§2) Cytotoxicity was assessed using the MTT assay (3-(4,5-dimethylthiazol-2-yl)-2,5-diphenyltetrazolium bromide) as described by Carmichael et al. (12).

The test system of the next series is β-tubulin. Put plainly: Separation of soluble and polymerized tubulins, Western blot of β-tubulin. It counts as cell-based, human. To be noted: MDA-MB-231 cells, 30 μM, 24 h and 48 h; for formation of modified β-tubulin (second immunoreactive band of lower Mr): free tubulin fraction. As for the experimental part: FIG. 2. Effects of CEU derivatives on microtubule depolymerization. Exponentially growing MDA-MB-231 cells were incubated in the absence or the presence of 30 μM of CEU derivatives including (A) 4-tBCEU, 4-iPCEU or 4-sBCEU for 24 and 48 h respectively; (B) 2-ECEU, 3-ECEU or 4-ECEU for 24 and 48 h; and (C) 4-tBEU, 4-iPEU, 4-sBEU, 4-tBCPU, CEU or 4-methoxyCEU for 48 h. Free tubulin and microtubule fractions were isolated and analyzed by Western blot. Data are representative of three different experiments.
Separation of soluble and polymerized tubulins from MDA-MB231 cells was carried out as described by Minotti et al. (14) with minor modifications. Briefly, after drug exposure, about 5×10^6 cells in 100-mm petri dishes were washed with PBS at 37° C. and harvested in 3 ml of PBS containing 0.4 μg/ml of taxol using a rubber policeman.
Cells were centrifuged and lysed using 250 μl of microtubule-stabilizing buffer (20 mM Tris-HCl, pH 6.8, 140 mM NaCl, 1 mM MgCl2, 2 mM EDTA, 0.5% Nonidet P-40 and 0.4 μg/ml taxol), and then transferred to 1.5 ml microcentrifuge tubes. Samples were centrifuged at 12,000×g for 10 min at 4° C. and the supernatants containing soluble tubulin were placed in separate microcentrifuge tubes containing 250 μl of 2× Laemmli sample buffer (15). Pellets containing the polymerized tubulin were resuspended in 250 μl of water, followed by two freeze/thawing cycles, and the addition of 250 μl of 2× Laemmli sample buffer. Samples were analyzed by SDS-PAGE and immunoassay was performed as described below.
Samples (1×10^5 cells) were analyzed by 10% SDS-PAGE using the Laemmli system (15). Membranes were then incubated with PBSMT (PBS, pH 7.4, 5% fat-free dry milk and 0.1% Tween-20) for 1 h at room temperature, and then with 1:500 monoclonal anti-β-tubulin (clone TUB 2.1, Sigma) or 1:400 anti (clone no. SDL.3D10, Sigma) for 1 h. […] Membranes were washed with PBSMT and incubated with 1:2500 peroxidase-conjugated anti-mouse immunoglobulin (Amersham Canada, Oakville, Canada) in PBSMT for 30 min. Detection of the immunoblot was carried out with the ECL Western blotting detection reagent kit (Amersham Canada, Oakville, Canada).
Background: A western blot detects proteins with antibodies after separation by electrophoresis.

Another series has as its system CHO VV 3-2 cells. Put plainly: MTT cytotoxicity on vinblastine- and colchicine-resistant CHO cells expressing mutated tubulin. The class given is cell-based, Chinese hamster. To be noted: Cricetulus griseus, CHO-VV 3-2, 120 h, read-out: IC50 CHO VV 3-2. As for the experimental part:
as §1, with “Wild-type Chinese Hamster Ovary cells (CHO-10001) (7), colchicine- and vinblastine-resistant (CHO-VV 3-2) (8) and taxol-resistant (CHO-TAX 5-6) cells (9) were generously provided by Dr. Fernando Cabral (University of Texas Medical School, Houston, Tex.).” left out
as §2
(§3) The cytotoxicity of 4-tBCEU, 4-iPCEU and 4-sBCEU in two CHO cell lines having differential sensitivity to antmicrotubule agents was evaluated. These cell lines are derived from parental CHO-10001 cells and express mutated tubulins.

A further series deals with CHO TAX 5-6 cells. Kind of series: MTT cytotoxicity on taxol-resistant CHO cells expressing mutated tubulin. The class given is cell-based, Chinese hamster. The note with it: Cricetulus griseus, CHO-TAX 5-6, 120 h, read-out: IC50 CHO TAX 5-6. As for the experimental part:
as §1, with “Wild-type Chinese Hamster Ovary cells (CHO-10001) (7), colchicine- and vinblastine-resistant (CHO-VV 3-2) (8) and taxol-resistant (CHO-TAX 5-6) cells (9) were generously provided by Dr. Fernando Cabral (University of Texas Medical School, Houston, Tex.).” left out
as §2, §3

The test system of series [3] is MDA-MB-231 cells. Put plainly: Cell cycle analysis by propidium iodide flow cytometry. The class given is cell-based, human. To be noted: for speed of induction of cell cycle arrest in G2+M compared with 4-tBCEU: 30 μM, 24 or 48 h; for accumulation of cells in G2+M: CEU derivatives at 30 μM, 24 h, flow cytometry. As for the experimental part:
FIG. 1. Effect of CEU derivatives on cell cycle. Exponentially growing MDA-MB-231 cells were incubated in the absence or presence of 30 μM of either 4-tBCEU, 4-iPCEU or 4-sBCEU for 24 and 48 h, respectively, at 37° C. The cell cycle was evaluated using propidium iodide staining and flow cytometric analysis. Data are representative of three independent experiments.
Following incubation of MDA-MB-231 cells with 4-tBCEU, 4-iPCEU or 4-sBCEU, the cells were harvested, resuspended in 1 ml PBS and fixed by the addition of 2.4 ml of ice cold anhydrous ethanol. Then, 5×10^5 cells from each sample were centrifuged for 3 min at 1000×g. Cell pellets were resuspended in PBS containing 50 μg/ml of PI and 40 U/ml of ribonuclease A (Boehringer Mannheim, Laval, Calif.). Mixtures were incubated at room temperature for 30 min and cell cycle distribution was analyzed using an Epics Elite ESP flow cytometer (Coulter Corporation, Miami, Fla., USA).
The effect of CEU, namely 4-tBCEU, 4-PCEU and 4-sBCEU, on the cell cycle was analyzed. To this end, exponentially growing MDA-MB-231 cells were treated with 30 μM 4-tBCEU, 4-iPCEU or 4-sBCEU for 24 or 48 h followed by an evaluation of cell cycle distribution by flow cytometry using propidium iodide, a fluorescent DNA dye. […] Induction of mitosis blockage in prophase by CEU derivatives was confirmed by mitotic index analysis as described by Drouin (22).
(A flow cytometer gives signals particle by particle.)

For series [4], the system named is CHO 10001 cells (wild-type). Kind of series: MTT cytotoxicity on wild-type CHO cells. It counts as cell-based, Chinese hamster. To be noted: Cricetulus griseus, CHO10001, 120 h, read-out: IC50 CHO 10001. Here is the method:
as §1, with “Wild-type Chinese Hamster Ovary cells (CHO-10001) (7), colchicine- and vinblastine-resistant (CHO-VV 3-2) (8) and taxol-resistant (CHO-TAX 5-6) cells (9) were generously provided by Dr. Fernando Cabral (University of Texas Medical School, Houston, Tex.).” left out
as §2, §3

The mark [5] stands for this setting: Homo sapiens, MDA-MB-231, concentration inhibiting 50% of cell growth, MTT assay, mean ± SD, read-out: IC50 (μM) MDA-MB-231.
Where [6] appears, read: concentration inhibiting 50% of cell growth, MTT assay, mean ± SD, read-out: IC50 (μM) MDA-MB-231.

Molecules are shown by their SMILES. “Also recorded” adds a separate entry of the source. Read-outs that look alike come from different tables or passages of the source. Marks after values point to notes of the source that are not given here.

Usually IC50 stands for the concentration needed to halve the response being measured. On to `O=C(O)CCCc1ccc(N(CCCl)CCCl)cc1` [CBL, Chlorambucil, reference compound], for which, in series [1], the “K′ (constant of alkylation of 4-(4-nitrobenzyl)pyridine)” value was 38.9 ± 5.1^a. Also, the IC50 with MDA-MB-231 cells [2] (Homo sapiens, MDA-MB-231, read-out: IC50 (μM) MDA-MB-231) is 9.3 ± 3.5 µM.

As for `CCC(C)c1ccc(NC(=O)NCCCl)cc1` (stereo not drawn) [Example 4-sBCEU, 4-sec-butyl[3-(2-chloroethyl)ureido]benzene], the microtubule depolymerization entry with β-tubulin is listed as “complete microtubule depolymerization”. Further, in the series with β-tubulin, the “formation of modified β-tubulin (second immunoreactive band of lower Mr)” value is on record as “second immunoreactive band; also recorded: slighly faster than for 4-tBCEU”. For the same molecule, the half-maximal inhibitory concentration (IC50) in the series on CHO VV 3-2 cells stood at 8.2 ± 0.4 µM; with CHO TAX 5-6 cells, 2100 ± 100 nM; in series [4], 5 ± 0.2 µM; in the series on MDA-MB-231 cells [2] (setting [5]), 2 µM; with MDA-MB-231 cells [2] (setting [6]) it was 2.3 ± 0.1 µM. The “K′ (constant of alkylation of 4-(4-nitrobenzyl)pyridine)” value in series [1] is on record as 3.1 ± 0.3^a. In addition, the “speed of induction of cell cycle arrest in G2+M compared with 4-tBCEU” value with MDA-MB-231 cells [3] was “more rapidly”. In the series on MDA-MB-231 cells [3], the “accumulation of cells in G2+M” value was “significant accumulation of cells in the G2+M”. In addition, in the series with MDA-MB-231 cells [2], the “cytotoxicity in words (active / inactive CEU)” value was “active”.

Consider `CC(C)c1ccc(NC(=O)NCCCl)cc1` [Example 4-iPCEU, 4-iso-propyl[3-(2-chloroethyl)ureido]benzene], for which the microtubule depolymerization entry in the series on β-tubulin is reported as “complete microtubule depolymerization”. For the same molecule, the “formation of modified β-tubulin (second immunoreactive band of lower Mr)” value in the series on β-tubulin was “second immunoreactive band; also recorded: slighly faster than for 4-tBCEU”. The IC50 came to 7.7 ± 0.4 µM in the series with CHO VV 3-2 cells; 2000 ± 100 nM with CHO TAX 5-6 cells; 4.4 ± 0.2 µM in series [4]; 2 µM in the series with MDA-MB-231 cells [2] (setting [5]); 2.2 ± 0.3 µM with MDA-MB-231 cells [2] (setting [6]). In addition, the “K′ (constant of alkylation of 4-(4-nitrobenzyl)pyridine)” value in series [1] was 3.0 ± 0.1^a. Besides, the “speed of induction of cell cycle arrest in G2+M compared with 4-tBCEU” value in the series on MDA-MB-231 cells [3] is “more rapidly”. The “accumulation of cells in G2+M” value in the series with MDA-MB-231 cells [3] is given as “significant accumulation of cells in the G2+M”. In addition, in the series on MDA-MB-231 cells [2], the “cytotoxicity in words (active / inactive CEU)” value is recorded as “active”.
